In article PMC4354462, “Design, Characterization, and First-In-Human Study of the Vascular Actions of a Novel Biased Apelin Receptor Agonist” (Hypertension, 2015):
Positions of bridges follow the written chain, without caps; N, C: chain ends. Residues, ends and D or L forms follow the SMILES beside them.

How the values were obtained:
male Wistar rats = experiment: Systemic infusions in anaesthetized rat (haemodynamics, echocardiography); type: in vivo
Protocol: Blood pressure (BP) was monitored continuously via an intra-arterial line and echocardiography was used after each bolus to determine changes in heart […], stroke volume, cardiac output (from peak velocity and velocity time interval) and respiratory rate. Rectal temperature was monitored throughout. BP was analyzed using absolute change in mean BP from the baseline taken just before the bolus and area under the curve analysis.

human hand vein = experiment: Aellig hand vein technique study in human volunteers; type: in vivo
From the text: All volunteers (n=12 forearm plethysmography, n=10 hand vein studies) gave written informed consent, and studies adhered to the principles of the Declaration of Helsinki and were approved by the National Research Ethics Service Committee East of England–Cambridge Central (REC 11/EE/0305).

human apelin receptor [1] = target: T1, human apelin receptor (Homo sapiens, UniProt P35414); experiment: Competition binding in homogenate of human left ventricle; settings: competition for 0.1 nmol/L [Glp65,Nle75,Tyr77][125I]apelin-13; human heart (left ventricle homogenate); n=3
T1 sequence (P35414 1-380): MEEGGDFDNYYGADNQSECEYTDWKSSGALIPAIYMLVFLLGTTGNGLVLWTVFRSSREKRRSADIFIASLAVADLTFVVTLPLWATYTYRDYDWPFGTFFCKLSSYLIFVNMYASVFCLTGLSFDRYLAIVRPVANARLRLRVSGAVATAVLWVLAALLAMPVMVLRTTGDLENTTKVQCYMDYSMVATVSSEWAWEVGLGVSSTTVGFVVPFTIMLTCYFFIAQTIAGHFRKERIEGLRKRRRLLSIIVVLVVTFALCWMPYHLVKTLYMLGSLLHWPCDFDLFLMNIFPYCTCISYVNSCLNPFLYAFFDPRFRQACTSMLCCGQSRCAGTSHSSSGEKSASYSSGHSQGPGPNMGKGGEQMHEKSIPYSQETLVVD

[2] = In vivo plasma half-life of apelin peptides; settings: rat, iv
From the text: Rats (230–260 g), anaesthetized with 2% isoflurane, were given a single intravenous bolus (600 nmol) of apelin or MM07 (both n=3).

human apelin receptor [3] = target: T1, human apelin receptor; experiment: Competition binding in CHO-K1-APJ cells; settings: competition for [Glp65,Nle75,Tyr77][125I]apelin-13 binding; human apelin receptors in CHO-K1 cells
Protocol: Initial assays were performed in cells expressing the human apelin receptor (CHO-K1-APJ cells; Cerep, Celle L’Evescault, France). […] Data were analyzed (KELL package; Biosoft, UK) to obtain the dissociation constant KD (concentration of ligand occupying 50% of receptors).

## CC(=O)NC(C(=O)O)C(C)(C)SN=O (racemic) [SNAP, S-Nitroso-N-acetyl-D,L-penicillamine]
Male Wistar rats; given after peptide doses, both peptide-treated groups
  BP response to SNAP: profound fall in BP

## CSCC[C@H](NC(=O)[C@@H]1CCCN1C(=O)CNC(=O)[C@H](CCCCN)NC(=O)[C@H](Cc1cnc[nH]1)NC(=O)[C@@H]1CSSC[C@H](N)C(=O)N[C@@H](CCCNC(=N)N)C(=O)N2CCC[C@H]2C(=O)N[C@@H](CCCNC(=N)N)C(=O)N[C@@H](CC(C)C)C(=O)N1)C(=O)N1CCC[C@H]1C(=O)N[C@@H](Cc1ccccc1)C(=O)O [MM07] (H-CRPRLCHKGPMPF-OH; disulfide 1-6)
Human hand vein; human, in vivo
  adverse events in hand vein study: no adverse events observed
Human apelin receptor [1]
  Kd: 172 nM
[2]
  half-life: 17.4 ± 0.4 min
Human apelin receptor [3]
  Kd: 300 nM

## CSCC[C@H](NC(=O)[C@@H]1CCCN1C(=O)CNC(=O)[C@H](CCCCN)NC(=O)[C@H](Cc1cnc[nH]1)NC(=O)[C@H](CO)NC(=O)[C@H](CC(C)C)NC(=O)[C@H](CCCNC(=N)N)NC(=O)[C@@H]1CCCN1C(=O)[C@H](CCCNC(=N)N)NC(=O)[C@@H]1CCC(=O)N1)C(=O)N1CCC[C@H]1C(=O)N[C@@H](Cc1ccccc1)C(=O)O [[Pyr^1]apelin-13, reference compound]
Human hand vein; human volunteers
  adverse events in hand vein study: no adverse events observed
Male Wistar rats; incremental bolus doses 1-300 nmol
  respiratory rate: Neither peptide caused a significant change
